What all share (assay): Protein kinase inhibition assay
Holding throughout (type): biochemical

Assay [1] addresses FGFR3(h) (Homo sapiens, UniProt P22607). The settings on record: read-out: percent residual activity of FGFR3(h). On the procedure: (§1) Certain compounds were tested for activity in protein kinase inhibition assays. All substrates were dissolved and diluted to working stocks in de-ionized water, apart from histone H1 (10× working stock in 20 mM MOPS pH 7.0), PDKtide (10× working stock in 50 mM Tris pH 7.0) ATF2 (which is typically stored at a 20× working stock in 50 mM Tris pH 7.5, 150 mM NaCl, 0.1 mM EGTA, 0.03% Brij-35, 50% glycerol, 1 mM benzamidine, 0.2 mM PMSF and 0.1% R-mercaptoethanol), KKLNRTLSFAEPG (SEQ ID NO:203) and RRRLSFAEPG (SEQ ID NO:204) (50 mM HEPES pH 7.4) and GGEEEEYFELVKKKK (SEQ ID NO:205) (20 mM MOPS pH 7.0). All kinases were pre-diluted to a 10× working concentration prior to addition into the assay. The composition of the dilution buffer for each kinase is detailed below.
(§2) In a final reaction volume of 25 μl, FGFR3 (h) (5-10 mU) is incubated with 8 mM MOPS pH 7.0, 0.2 mM EDTA, 0.1 mg/ml poly(Glu, Tyr) 4:1, 10 mM MnCl2, 10 mM MgAcetate and [y-33P-ATP] (specific activity approx. 500 cpm/pmol, concentration as required). The reaction is initiated by the addition of the MgATP mix. After incubation for 40 minutes at room temperature, the reaction is stopped by the addition of 5 μl of a 3% phosphoric acid solution. 10 μl of the reaction is then spotted onto a Filtermat A and washed three times for 5 minutes in 75 mM phosphoric acid and once in methanol prior to drying and scintillation counting.

Assay [2] has as its target Lck(h) (Homo sapiens, UniProt P06239). The settings on record: read-out: percent residual activity of Lck(h). On the procedure: as §1
In a final reaction volume of 25 μl, Lck (h) (5-10 mU) is incubated with 50 mM Tris pH 7.5, 0.1 mM EGTA, 0.1 mM Na3VO4, 250 μM KVEKIGEGTYGVVYK (SEQ ID NO:211) (Cdc2 peptide), 10 mM MgAcetate and [gamma-33P-ATP] (specific activity approx. 500 cpm/pmol, concentration as required). The reaction is initiated by the addition of the MgATP mix. After incubation for 40 minutes at room temperature, the reaction is stopped by the addition of 5 μl of a 3% phosphoric acid solution. […]

Assay [3] deals with Fer(h) (Homo sapiens, UniProt P16591). The settings on record: read-out: percent residual activity of Fer(h). On the procedure: as §1
In a final reaction volume of 25 μl, Fer (h) (5-10 mU) is incubated with 8 mM MOPS pH 7.0, 0.2 mM EDTA, 1 mM MnCl2, 250 μM KKKSPGEYVNIEFG (SEQ ID NO:207), 10 mM MgAcetate and [gamma-33P-ATP] (specific activity approx. 500 cpm/pmol, concentration as required). The reaction is initiated by the addition of the MgATP mix. After incubation for 40 minutes at room temperature, the reaction is stopped by the addition of 5 μl of a 3% phosphoric acid solution. […]

Assay [4] deals with IRR(h) (Homo sapiens, UniProt P14616). The settings on record: read-out: percent residual activity of IRR(h). On the procedure: as §1
as §2, with “IRR” for “FGFR3”, “0.33” for “0.1”, “myelin basic protein,” for “poly(Glu, Tyr) 4:1, 10 mM MnCl2,”, “[gamma-33P-ATP]” for “[y-33P-ATP]”, “P30 filtermat” for “Filtermat A”

For assay [5], the target named is ASK1(h) (Homo sapiens, UniProt Q99683). The settings on record: read-out: percent residual activity of ASK1(h). As for the experimental part: as §1
as §2, with “ASK1” for “FGFR3”, “0.33” for “0.1”, “myelin basic protein,” for “poly(Glu, Tyr) 4:1, 10 mM MnCl2,”, “[gamma-33P-ATP]” for “[y-33P-ATP]”, “P30 filtermat” for “Filtermat A”

Assay [6] addresses GSK3β(h) (Homo sapiens, UniProt P49841). The settings on record: read-out: percent residual activity of GSK3β(h). As for the experimental part: as §1
In a final reaction volume of 25 μl, GSK3β (h) (5-10 mU) is incubated with 8 mM MOPS pH 7.0, 0.2 mM EDTA, 20 μM […](p)EDEEE (SEQ ID NO:221) (phospho GS2 peptide), 10 mM MgAcetate and [gamma-33P-ATP] (specific activity approx. 500 cpm/pmol, concentration as required). The reaction is initiated by the addition of the MgATP mix. After incubation for 40 minutes at room temperature, the reaction is stopped by the addition of 5 μl of a 3% phosphoric acid solution. […]

In US20070117770A1, “Human ribosomal DNA (rDNA) and ribosomal RNA (rRNA) nucleic acids and uses thereof” (Cylene Pharmaceuticals, Inc., priority 2005, published 2007) one finds remaining activity data, which are given here for 2 molecules.

IRR(h), sequence (P14616 27-1297): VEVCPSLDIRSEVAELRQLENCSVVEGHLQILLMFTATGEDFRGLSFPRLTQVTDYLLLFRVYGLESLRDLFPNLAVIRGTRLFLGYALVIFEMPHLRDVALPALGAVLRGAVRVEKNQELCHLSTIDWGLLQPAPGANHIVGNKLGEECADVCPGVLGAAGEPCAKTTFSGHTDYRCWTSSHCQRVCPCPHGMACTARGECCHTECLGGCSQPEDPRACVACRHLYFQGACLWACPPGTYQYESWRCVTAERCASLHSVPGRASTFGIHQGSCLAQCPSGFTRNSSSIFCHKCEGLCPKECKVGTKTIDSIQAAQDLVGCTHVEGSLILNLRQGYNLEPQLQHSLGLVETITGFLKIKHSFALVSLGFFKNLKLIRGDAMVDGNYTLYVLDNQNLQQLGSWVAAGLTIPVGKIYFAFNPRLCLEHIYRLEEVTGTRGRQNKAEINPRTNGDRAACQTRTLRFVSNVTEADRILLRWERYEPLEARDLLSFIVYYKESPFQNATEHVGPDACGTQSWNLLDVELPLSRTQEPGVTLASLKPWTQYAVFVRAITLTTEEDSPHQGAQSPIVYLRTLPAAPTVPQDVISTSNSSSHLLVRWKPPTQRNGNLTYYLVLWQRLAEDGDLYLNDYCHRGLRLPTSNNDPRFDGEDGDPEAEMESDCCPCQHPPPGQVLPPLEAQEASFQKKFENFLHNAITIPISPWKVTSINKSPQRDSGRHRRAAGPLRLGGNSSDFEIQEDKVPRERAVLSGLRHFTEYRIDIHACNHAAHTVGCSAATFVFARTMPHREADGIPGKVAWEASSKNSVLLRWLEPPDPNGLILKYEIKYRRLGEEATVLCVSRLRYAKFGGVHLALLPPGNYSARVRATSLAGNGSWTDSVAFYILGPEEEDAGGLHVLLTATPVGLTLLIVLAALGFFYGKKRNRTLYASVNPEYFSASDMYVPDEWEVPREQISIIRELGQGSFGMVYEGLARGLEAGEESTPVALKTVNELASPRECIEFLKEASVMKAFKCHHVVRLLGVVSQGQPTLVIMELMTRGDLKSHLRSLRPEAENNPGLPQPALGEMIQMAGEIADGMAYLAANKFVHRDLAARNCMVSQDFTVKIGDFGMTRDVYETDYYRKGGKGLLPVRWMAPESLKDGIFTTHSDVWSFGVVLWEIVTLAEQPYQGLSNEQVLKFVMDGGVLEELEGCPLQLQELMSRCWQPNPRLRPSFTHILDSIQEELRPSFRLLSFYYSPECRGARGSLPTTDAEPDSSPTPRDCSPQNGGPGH
Fer(h), sequence (P16591 whole entry): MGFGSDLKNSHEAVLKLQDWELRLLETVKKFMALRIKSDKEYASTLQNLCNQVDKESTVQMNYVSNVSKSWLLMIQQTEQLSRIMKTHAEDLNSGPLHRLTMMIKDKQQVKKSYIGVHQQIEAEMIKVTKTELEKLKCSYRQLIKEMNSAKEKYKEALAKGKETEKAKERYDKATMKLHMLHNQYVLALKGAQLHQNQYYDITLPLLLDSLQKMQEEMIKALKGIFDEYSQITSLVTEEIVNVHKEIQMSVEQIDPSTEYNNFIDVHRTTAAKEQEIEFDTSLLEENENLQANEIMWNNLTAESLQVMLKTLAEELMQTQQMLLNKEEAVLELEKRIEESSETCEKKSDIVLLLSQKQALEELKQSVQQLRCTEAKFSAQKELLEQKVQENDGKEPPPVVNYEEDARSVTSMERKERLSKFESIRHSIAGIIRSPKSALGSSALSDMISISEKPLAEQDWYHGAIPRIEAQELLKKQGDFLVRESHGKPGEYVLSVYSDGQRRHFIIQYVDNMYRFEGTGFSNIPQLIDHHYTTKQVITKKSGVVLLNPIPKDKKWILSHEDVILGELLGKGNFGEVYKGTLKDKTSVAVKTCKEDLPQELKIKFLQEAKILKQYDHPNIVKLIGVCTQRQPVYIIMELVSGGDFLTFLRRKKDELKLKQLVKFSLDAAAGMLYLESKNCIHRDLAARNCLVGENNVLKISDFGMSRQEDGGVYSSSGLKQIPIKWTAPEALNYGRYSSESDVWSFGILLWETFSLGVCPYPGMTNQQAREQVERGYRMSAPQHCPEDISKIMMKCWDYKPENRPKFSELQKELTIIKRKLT
ASK1(h), sequence (Q99683 whole entry): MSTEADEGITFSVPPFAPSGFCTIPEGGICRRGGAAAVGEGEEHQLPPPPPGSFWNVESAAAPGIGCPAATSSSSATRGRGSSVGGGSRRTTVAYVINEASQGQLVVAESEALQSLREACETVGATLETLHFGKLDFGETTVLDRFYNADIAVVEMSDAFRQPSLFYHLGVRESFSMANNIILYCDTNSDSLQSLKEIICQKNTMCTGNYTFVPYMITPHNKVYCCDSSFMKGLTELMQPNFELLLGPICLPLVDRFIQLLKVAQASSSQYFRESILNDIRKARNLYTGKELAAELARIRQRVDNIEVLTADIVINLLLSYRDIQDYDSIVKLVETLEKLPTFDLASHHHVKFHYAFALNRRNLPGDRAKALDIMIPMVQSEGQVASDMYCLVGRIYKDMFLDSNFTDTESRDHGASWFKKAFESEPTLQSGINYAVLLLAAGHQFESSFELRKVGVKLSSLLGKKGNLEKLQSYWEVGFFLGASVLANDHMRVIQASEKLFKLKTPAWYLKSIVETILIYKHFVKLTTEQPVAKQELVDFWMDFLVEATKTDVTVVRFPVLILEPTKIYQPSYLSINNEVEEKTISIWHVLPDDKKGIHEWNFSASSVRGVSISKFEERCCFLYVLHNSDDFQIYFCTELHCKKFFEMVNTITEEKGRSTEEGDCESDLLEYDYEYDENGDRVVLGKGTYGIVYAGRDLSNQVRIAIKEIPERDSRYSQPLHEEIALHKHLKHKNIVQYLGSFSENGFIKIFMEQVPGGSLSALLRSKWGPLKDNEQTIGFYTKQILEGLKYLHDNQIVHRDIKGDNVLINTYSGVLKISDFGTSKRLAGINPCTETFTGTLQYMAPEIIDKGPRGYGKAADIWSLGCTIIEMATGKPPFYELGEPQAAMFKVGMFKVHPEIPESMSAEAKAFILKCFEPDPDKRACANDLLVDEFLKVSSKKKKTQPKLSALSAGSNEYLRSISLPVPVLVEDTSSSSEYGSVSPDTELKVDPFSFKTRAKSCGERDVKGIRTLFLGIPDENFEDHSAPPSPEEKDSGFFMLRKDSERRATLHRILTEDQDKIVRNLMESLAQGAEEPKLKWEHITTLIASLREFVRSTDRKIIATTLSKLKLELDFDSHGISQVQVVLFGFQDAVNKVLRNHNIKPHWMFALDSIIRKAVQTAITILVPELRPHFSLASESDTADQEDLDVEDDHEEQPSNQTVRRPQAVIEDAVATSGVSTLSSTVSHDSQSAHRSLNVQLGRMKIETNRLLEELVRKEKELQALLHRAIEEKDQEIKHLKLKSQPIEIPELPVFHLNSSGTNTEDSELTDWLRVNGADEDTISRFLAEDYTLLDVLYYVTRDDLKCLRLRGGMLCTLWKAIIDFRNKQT
Lck(h), sequence (P06239 whole entry): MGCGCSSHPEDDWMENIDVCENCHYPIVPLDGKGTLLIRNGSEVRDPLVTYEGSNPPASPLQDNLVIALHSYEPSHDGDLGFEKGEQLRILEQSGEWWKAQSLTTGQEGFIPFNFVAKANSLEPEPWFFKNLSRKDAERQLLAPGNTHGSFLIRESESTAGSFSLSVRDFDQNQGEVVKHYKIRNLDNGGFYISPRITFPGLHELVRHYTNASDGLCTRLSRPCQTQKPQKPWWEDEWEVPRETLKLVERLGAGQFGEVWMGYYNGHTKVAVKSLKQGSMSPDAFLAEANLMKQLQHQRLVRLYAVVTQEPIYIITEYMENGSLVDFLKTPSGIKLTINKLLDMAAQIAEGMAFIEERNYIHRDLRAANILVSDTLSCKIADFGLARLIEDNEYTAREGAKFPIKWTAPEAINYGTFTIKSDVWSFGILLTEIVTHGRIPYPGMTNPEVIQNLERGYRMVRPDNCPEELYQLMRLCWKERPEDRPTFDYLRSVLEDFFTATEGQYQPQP
FGFR3(h), sequence (P22607 23-806): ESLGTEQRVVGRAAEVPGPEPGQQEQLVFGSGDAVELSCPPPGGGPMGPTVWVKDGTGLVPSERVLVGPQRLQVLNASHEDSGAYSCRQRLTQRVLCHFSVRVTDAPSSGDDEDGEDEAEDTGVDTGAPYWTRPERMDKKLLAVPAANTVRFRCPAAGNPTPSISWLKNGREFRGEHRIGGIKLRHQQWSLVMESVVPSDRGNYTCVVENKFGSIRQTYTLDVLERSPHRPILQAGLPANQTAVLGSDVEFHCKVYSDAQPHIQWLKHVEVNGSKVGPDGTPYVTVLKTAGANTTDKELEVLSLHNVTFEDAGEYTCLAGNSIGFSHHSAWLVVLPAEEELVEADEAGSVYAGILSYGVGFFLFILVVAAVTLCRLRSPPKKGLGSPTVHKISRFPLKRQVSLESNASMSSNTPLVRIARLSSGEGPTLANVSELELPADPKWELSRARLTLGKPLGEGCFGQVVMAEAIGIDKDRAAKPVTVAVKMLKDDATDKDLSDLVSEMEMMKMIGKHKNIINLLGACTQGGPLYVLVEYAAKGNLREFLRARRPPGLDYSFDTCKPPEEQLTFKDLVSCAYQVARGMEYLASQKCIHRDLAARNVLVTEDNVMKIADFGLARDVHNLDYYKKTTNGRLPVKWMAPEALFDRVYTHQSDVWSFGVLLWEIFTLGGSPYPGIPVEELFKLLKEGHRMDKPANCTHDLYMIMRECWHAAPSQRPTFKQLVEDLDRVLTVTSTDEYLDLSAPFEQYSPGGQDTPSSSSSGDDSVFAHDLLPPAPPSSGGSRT

Turning to `CN1CCCC1CCNC(=O)c1cn2c3c(c(N4CCC(c5cnccn5)C4)c(F)cc3c1=O)Oc1cc3ccccc3cc1-2` (stereo not drawn) [Compound A-1], the remaining activity at 2.5 µM in assay [1] was 101%; in assay [2], 170%; in assay [3] it was 84%; in assay [4], 97%; in assay [5], 98%; in assay [6], 135%.

Consider `CC(=O)N1CCN(c2ccc3c(=O)c(C(=O)NCCN4CCCC4)c4n(C)c5ccccc5n4c3n2)CC1` [Compound B-1], for which the remaining activity at 2.5 µM in assay [1] worked out at 116%; in assay [2] it was 115%; in assay [3], 94%; in assay [4], 103%; in assay [5] it was 110%; in assay [6], 76%.
